The text below walks through data of patent US8293749B2, “Injectable meclizine formulations and methods” (Genebiology, Inc., priority 2007, dated 2012).

Values after ≈ are worked out from the molar mass of the structure shown.

For one series, the system named is nausea and vomiting. The following applies: anti-emetic; cited from earlier work.
The conditions of series [1]: Merck Index, 12th Ed, 984; cited from earlier work.
A short description of series [2]: Aqueous solubility of meclizine versus pH, 0.1 M citric acid buffer and ddH2O, HPLC. It is filed as physicochemical. As to conditions: for solubility at 24 h: thermodynamic from solid. How it is done: Citric acid (0.1M) buffer solutions are prepared with pH's of 1.0; 2.0; 3.0; 4.0, and 5.0 in ddH2O (de-oxygenated water by purging with nitrogen gas). 2 ml of each buffer are placed in 4 ml vials and 2 ml ddH2O is placed in a 4 ml vial. 20 mg meclizine HCl is added to each vial. The vials are sealed and are shaken on an orbital shaker for 24 hours at 200 rpm. Following the shaking, the vial contents are filtered through 0.45 μm filters to remove any excess solute. The remaining solution is assayed by HPLC for meclizine content.

Series [3] in a line: Solubility of meclizine with cyclodextrins in ddH2O, HPLC. It is filed as physicochemical. As to conditions: alpha-CD 0-100 mg/ml, gamma-CD, HPBCD and SBECD at 200 mg/ml versus no CD. How it is done:
FIG. 1A depicts solubility data of meclizine complexed with non-chemically modified cyclodextrins (α-CD at 0-100 mg/ml, γ-CD at 200 mg/ml), chemically modified cyclodextrins (HPBCD and SBECD) at 200 mg/ml, and with no CD complexation in ddH2O. Solutions were prepared by adding excess meclizine to ddH2O samples with varying quantities of the different cyclodextrins. These samples were shaken for 24 hours at 200 rpm. Following the shaking, the vial contents were filtered through 0.45 μm filters to remove any excess solute. The remaining solution was assayed by HPLC for meclizine content.

A short description of series [4]: pH-dependent solubility of meclizine cyclodextrin complexes in 0.5 M citric buffer. It is filed as physicochemical. As to conditions: HPBCD 200 mg/ml, above pH of about 5, compared with non-chemically modified CDs.
The nature of series [5]: physchem. The following applies: 25 °C, pH 4, aqueous buffer, thermodynamic from solid, aqueous solubility of meclizine at pH 4.0. As to the method: Five HPBCD and five SBECD solutions in 0.5 M citric acid buffer (pH of 4.0) are prepared, with HPBCD and SBECD concentrations of 0; 50; 100; 150 and 200 mg/ml. 3 ml of the various buffered HPBCD and SBECD solutions are placed in 4 ml vials. 50-100 mg meclizine is added to each vial, such that excess meclizine is available. The vials are sealed and are shaken on an orbital shaker for 24 hours at 200 rpm and 25° C. Following the shaking, the vials are filtered through 0.45 μm filters to remove any excess solute. The remaining solution is assayed by HPLC for meclizine content.

Series [6] in a line: physchem. The following applies: 25 °C, pH 3, aqueous buffer, thermodynamic from solid, aqueous solubility of meclizine at pH 3.0. How it is done:
Five HPBCD and five SBECD solutions in 0.5 M citric acid buffer (pH of 3.0) are prepared, with HPBCD and SBECD concentrations of […]. 3 ml of the various buffered HPBCD and SBECD solutions are placed in 4 ml vials. 75-100 mg meclizine is added to each vial, such that excess meclizine is provided. The vials are sealed and are shaken on an orbital shaker for 24 hours at 200 rpm and 25° C. Following the shaking, the vials are filtered through 0.45 μm filters to remove any excess solute. The remaining solution is assayed by HPLC for meclizine content.

Turning to `CN1CCN(C(c2ccccc2)c2ccccc2)CC1` [cyclizine], the duration of action with nausea and vomiting was 1 to 2 h.

Turning to `Cc1cccc(CN2CCN(C(c3ccccc3)c3ccc(Cl)cc3)CC2)c1.Cl.Cl` (stereo not shown) [meclizine HCl, 1-(4-chlorobenzhydryl)-4-(3-methylbenzyl)-piperazine dihydrochloride], the water solubility in series [1] was 0.1 g/100 ml.

As a reminder, the solubility is the concentration that dissolves in the medium under given conditions. Turning to `Cc1cccc(CN2CCN(C(c3ccccc3)c3ccc(Cl)cc3)CC2)c1` (stereo not shown) [meclizine, 1-(4-chlorobenzhydryl)-4-(3-methylbenzyl)-piperazine], the “aqueous solubility of meclizine” value in series [2] (0.1 M citric acid buffer, about pH 5.0, shaken 24 hours) is on record as “below the limit of detection”. Also, the solubility at 24 h in series [2] (aqueous buffer, 0.1 M citric acid buffer, pH 1.0, shaken 24 hours, read-out: aqueous solubility of meclizine) is around 1500 µg/mL (≈ 3840 µM); in series [2] (ddH2O (de-oxygenated water), pH 2, water, ddH2O, measured pH of about 2.0, shaken 24 hours, read-out: aqueous solubility of meclizine in ddH2O), around 3800 µg/mL (≈ 9720 µM); in the series “physchem [5]” it was around 10 µg/mL (≈ 25.6 µM); in “physchem [6]”, around 300 µg/mL (≈ 767 µM). The “solubility of meclizine with cyclodextrins” value in series [3] was “improved solubility”. Further, the “solubility of meclizine in HPBCD at higher pH” value in series [4] is recorded as “improved solubility”. In addition, in the series on nausea and vomiting, the duration of action entry was “up to 24 hours”.
